The source of these data is publication PMC4550478, “Metronidazole-triazole conjugates: Activity against Clostridium difficile and parasites” (European Journal of Medicinal Chemistry, 2015).

≈ marks a conversion by molar mass, not a printed value. Where only a bound is given, the exact number is not on record here.

For data set [1], the system named is ESKAPE bacteria: S. aureus MRSA (ATCC 43300), E. coli (ATCC 25922), K. pneumoniae (ATCC 700603), A. baumannii (ATCC 19606) and P. aeruginosa (ATCC 27853). Briefly: MIC against ESKAPE pathogens, aerobic. The format is cell-based. Particulars: aerobic conditions, single concentration screen, n = 3. The method, then:
All compounds were tested for activity against a set of anaerobic C. difficile bacteria (630 ATCC BAA-1382, NAP1/027 M7404, NAP1/027 ATCC BAA-1803, VPI10463 ATCC 43255, CD26A54_S and CD26A54_R) and representative ESKAPE pathogens S. aureus (MRSA ATCC 43300), E. coli (ATCC 25922), K. pneumoniae (ATCC 700603), A. baumannii (ATCC 19606) and P. aeruginosa (ATCC 27853) using a standard broth microdilution assay. Selected compounds were tested for activity against H. pylori strains (26695, and clinical isolates MtzS 13/25, MtzR 98/285 and MtzR 13/61) using agar plate dilution, and for antimicrobial activity against twelve Gram-positive bacterial strains: Enterococcus faecalis (VanA clinical isolate), Enterococcus faecium (MDR VanA ATCC 51559), Streptococcus pneumoniae (MDR ATCC 700677), S. aureus (MRSA ATCC 43300, MRSA clinical isolate, MRSA/DRSA clinical isolate, GISA NARSA NRS 1, GISA NARSA NRS 17, VRSA NARSA VRS1, VRSA NARSA VRS4 and VRSA NARSA VRS10) using broth microdilution. C. difficile strains were grown at 37 °C in a COY anaerobic chamber (5% H2, 10% CO2, 85% N2). H. pylori strains were grown at 37 °C under a microaerobic atmosphere (5% O2, 10% CO2). All facultative anaerobic bacteria were grown at 37 °C with normal atmospheric oxygen levels. […] Positive growth control of bacteria and DMSO as well as a negative control of only media were included for every plate. Full assay details are provided in the supplementary information.
MICs were determined by a two-fold serial broth micro dilution according to the recommendation of CLSI standards with an inoculum of 5 × 10^5 CFU/mL^4 The compounds along with standard antibiotics were serially diluted twofold across the wells of 96-well non-binding surface plates (NBS, Corning). […] Gram-positive and Gram-negative bacteria were cultured in Mueller Hinton broth (MHB) (Bacto laboratories, Cat. no. 211443) at 37 °C overnight. A sample of each culture was then diluted 40-fold in fresh MHB broth and incubated at 37 °C for 2-3 h. The resultant mid-log phase cultures were diluted to the final concentration of 5 × 10^5 CFU/mL, then 50 μL was added to each well of the compound containing 96-well plates. All the plates were covered and incubated at 37 °C for 24 h.

Data set [2] can be described thus: Cytotoxicity, resazurin, HEK293. Particulars: human. The data set is classed as cell-based. As for the experimental part:
(§1) Compounds were tested for cytotoxicity against mammalian HepG2 and HEK293 cell lines, as detailed in the supplementary information.
(§2) HEK293 and HepG2 cells were seeded as 3000 and 5000 cells per well in 384-well plates, respectively. Cells were cultured in DMEM with 1% FBS for 24 hours at 37 °C, 5% CO2. Then a dilution series of compounds was added into each well, with the highest concentration of 100 µM. […] After 24 hours incubation with the compounds, 5 µM resazurin were added into each well and incubated at 37 °C for 2 hours. As a negative control, 1% Triton X-100 was added into the culture media to lyse all the cells. The fluorescence intensity was read using Polarstar Omega with excitation/emission 560/590. The data was analysed by GraphPad Prism software. Results are presented as the average percentage of control ± SD using the following equation: Percentage of Growth = (FITEST – FINegative/FIUNTREATED –FINegative)*100.
In general terms: The colour change of resazurin is a common sign of viable cells or microbes.

Data set [3] in a line: Cytotoxicity, resazurin, HepG2. The format is cell-based. Conditions: human. The method, then:
as §1, §2

Data set [4] concerns H. pylori clinical isolate 13/61. Briefly: Metronidazole E-test, H. pylori 13/61. The data set is classed as cell-based. Conditions: Helicobacter pylori. The method, then: (§3) Helicobacter pylori strains, with a range of resistance levels to metronidazole (256 µg/ml, 64 µg/ml, 24 µg/ml, 2 µg/ml, and 0.04 µg/ml), were selected and obtained from Helicobacter Research Laboratory, University of Western Australia. The resistance strength to metronidazole was recorded according to eTest (bioMérieux). H. pylori strain 26695 was used as the control. H. pylori was maintained on the non-selective Columbia blood agar plates (CBA) (Columbia agar base Oxoid) with 5% horse blood and incubated at 37 °C and 10% CO2 for 48 hrs. […] Each of the H. pylori strains were harvested, OD600 calibrated to 0.3, and spotted in triplicate on CBA pre-mixed with the compound. The lowest concentration of antibiotic showing no growth was read as the MIC. The experiment was performed in duplicate.

Data set [5] relates to C. difficile NAP1/027 CD26A54_R. Briefly: Metronidazole E-test on BAKHS, C. difficile CD26A54_R. The format is cell-based, Clostridium difficile. Particulars: BAKHS agar; for MIC: Clostridioides difficile. The method, then: (§4) Mid-log phase (OD600 =0.5- 0.6) culture was diluted to a 0.5 McFarland standard (OD600~ 0.1) in prereduced broth. The diluted culture was inoculated onto duplicate BAKHS agar plate using a cotton tip applicator. The inoculum was allowed to dry before the Metronidazole E-test strip (Metronidazole MZH 256-S30, bioMérieux Australia) was placed in duplicate on the surface of the agar. The agar plate was inverted and incubated for up to 96 hr. The MIC was read as the point at which the elliptical zone of inhibition intercepted the E-test strip at 24, 48 and 96 hr.

The subject of data set [6] is H. pylori clinical isolate 98/285. The data set is described as follows: Metronidazole E-test, H. pylori 98/285. The format is cell-based. Conditions: Helicobacter pylori. As for the experimental part: as §3
In data set [7] the test system is C. difficile NAP1/027 CD26A54_S. Briefly: Metronidazole E-test on BAKHS, C. difficile CD26A54_S. The format is cell-based, Clostridium difficile. Particulars: Clostridioides difficile, BAKHS agar. As for the experimental part:
as §4

The test system of data set [8] is H. pylori clinical isolate 13/25. Briefly: Metronidazole E-test, H. pylori 13/25. Conditions: Helicobacter pylori. The format is cell-based. As for the experimental part:
as §3

For data set [9], the system named is C. difficile NAP1/027 ATCC BAA-1803. Briefly: Metronidazole E-test on BAKHS, C. difficile ATCC BAA-1803. The format is cell-based, Clostridium difficile. Particulars: Clostridioides difficile, ATCCBAA1803, BAKHS agar. As for the experimental part:
as §4

The subject of data set [10] is C. difficile NAP1/027 CD26A54_R. Set-up: method as in PMID 24400070. Particulars: cited from earlier work.
Data set [11] shares this test system. Set-up: method as in PMID 24400070. Particulars: cited from earlier work. This is another data set of the same source.
For data set [12] the following is noted: in vivo; cited from earlier work.

Broadly, the CC50 is the concentration giving 50% cytotoxicity. `Cc1ncc([N+](=O)[O-])n1CCN=[N+]=[N-]` [Compound 3, 1-(2-azidoethyl)-2-methyl-5-nitro-1H-imidazole]: in data set [1], the “MIC ESKAPE bacteria” value is above 32 µg/mL. For the same compound, the half-maximal cytotoxic concentration (CC50) at 24 h in data set [2] (no cytotoxicity up to 100 μM, 24 hours incubation, read-out: CC50 HEK293) is above 100 µM; in data set [3] (no cytotoxicity up to 100 μM, 24 hours incubation, read-out: CC50 HepG2), above 100 µM.

The term MIC denotes the smallest concentration in the dilution series that meets the test's criterion for growth inhibition. Read a low MIC as a more susceptible organism. For `Cc1ncc([N+](=O)[O-])n1CCO` [Compound 1, metronidazole], the “MIC ESKAPE bacteria” value in [1] is above 32 µg/mL. Also, the MIC worked out at 256 µg/mL (≈ 1500 µM) in data set [4]; 32 µg/mL (≈ 187 µM) in [5] (24 hrs); 48 µg/mL (≈ 280 µM) in [5] (48 hrs); 48 µg/mL (≈ 280 µM) in data set [5] (96 hrs); 24 µg/mL (≈ 140 µM) in data set [6]; 6 µg/mL (≈ 35.1 µM) in data set [7] (24 hrs). In addition, the MIC is 8 µg/mL (≈ 46.7 µM) in data set [7] (48 hrs); 8 µg/mL (≈ 46.7 µM) in data set [7] (96 hrs); 2 µg/mL (≈ 11.7 µM) in data set [8]; 2 µg/mL (≈ 11.7 µM) in data set [9] (24 hrs); 2 µg/mL (≈ 11.7 µM) in [9] (48 hrs); 2 µg/mL (≈ 11.7 µM) in data set [9] (96 hrs). Further, in data set [5] (48 hrs), the “Metronidazole E-test MIC CD26A54_R” value is 48 µg/mL. Further, the CC50 at 24 h in [2] and in data set [3] was above 100 µM each time. In data set [10], the “MIC to metronidazole in broth, MtzR C. difficile, reported by Chong et al.” value was 8 µg/mL (≈ 46.7 µM). Further, the “Metronidazole MIC by E-test, MtzR C. difficile, reported by Chong et al.” value in data set [11] was above 32 µg/mL. The oral bioavailable in data set [12] is 100%.
